Data as given in patent US20030120073A1, “Alpha-ketocarboxylic acid based inhibitors of phosphoryl tyrosine phosphatases” (priority 2001, published 2003).
Like-named read-outs stand apart in the source and are kept apart here.

Columns and labels:
Yersinia PTPase = biological target: T1, Yersinia PTPase (Yersinia enterocolitica, UniProt P15273); assay: biochemical; assay type: biochemical
T1 construct: purchased Calbiochem

LAR PTPase = biological target: T2, LAR PTPase (Homo sapiens, UniProt P10586); assay: LAR PTPase assay (p-NPP hydrolysis, UV at 420 nm); assay type: biochemical; conditions: 100 mM acetate pH 5.5, 10% DMSO; read-out: Km of substrate, LAR
T2 construct: purchased Calbiochem
T2 sequence (P10586 1301-1639 limits assumed): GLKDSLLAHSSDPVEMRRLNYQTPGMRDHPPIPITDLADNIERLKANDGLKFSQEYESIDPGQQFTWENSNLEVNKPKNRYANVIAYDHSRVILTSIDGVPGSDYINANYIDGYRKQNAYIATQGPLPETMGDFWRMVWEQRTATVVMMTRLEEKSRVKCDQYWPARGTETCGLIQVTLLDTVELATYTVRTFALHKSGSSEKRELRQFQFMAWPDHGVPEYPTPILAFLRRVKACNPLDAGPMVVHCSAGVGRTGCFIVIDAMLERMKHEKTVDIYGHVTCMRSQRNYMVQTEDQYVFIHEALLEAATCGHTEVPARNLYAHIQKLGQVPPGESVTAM

PTP1B [1] = biological target: T3, PTP1B (Homo sapiens, UniProt P18031); assay: PTP1B assay (p-NPP hydrolysis, UV at 420 nm); assay type: biochemical; conditions: 100 mM acetate pH 5.5, 10% DMSO; read-out: Km of substrate, PTP1B
T3 construct: purchased Calbiochem
T3 sequence (P18031 1-435): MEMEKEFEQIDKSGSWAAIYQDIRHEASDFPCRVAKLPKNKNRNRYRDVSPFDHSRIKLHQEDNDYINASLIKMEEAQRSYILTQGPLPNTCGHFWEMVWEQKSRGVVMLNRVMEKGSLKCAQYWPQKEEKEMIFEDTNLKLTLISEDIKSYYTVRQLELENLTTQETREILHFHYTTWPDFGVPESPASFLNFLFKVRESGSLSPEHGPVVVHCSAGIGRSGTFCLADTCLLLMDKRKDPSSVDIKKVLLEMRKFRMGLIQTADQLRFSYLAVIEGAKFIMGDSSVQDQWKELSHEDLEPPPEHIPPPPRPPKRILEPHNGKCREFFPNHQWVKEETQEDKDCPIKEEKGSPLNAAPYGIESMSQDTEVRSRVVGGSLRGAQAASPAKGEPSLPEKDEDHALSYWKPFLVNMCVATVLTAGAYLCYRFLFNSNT
Protocol: PTP1B Assay: PTP1B (purchased from Calbiochem) was assayed usingp-NPP as the substrate and the reaction progress was monitored by UV spectroscopy. Initial rates were determined by monitoring the hydrolysis of p-NPP at 420 nm, from 10 to 120 s after mixing. Assay solutions contained 1.2 mM substrate, 1 mM EDTA, 100 mM NaCl, and 100 mM acetate at pH 5.5, and 10% DMSO. IC50 values were calculated using a Dixon analysis. Data analysis was performed with the commercial graphing package Grafit (Erithacus Software Ltd.).

PTP1B [2] = biological target: T3, PTP1B; conditions: absence of DMSO, acetate buffer pH 5.5; reference 1; read-out: Km of substrate, PTP1B (reported); cited from earlier work

T1 sequence (P15273 whole entry): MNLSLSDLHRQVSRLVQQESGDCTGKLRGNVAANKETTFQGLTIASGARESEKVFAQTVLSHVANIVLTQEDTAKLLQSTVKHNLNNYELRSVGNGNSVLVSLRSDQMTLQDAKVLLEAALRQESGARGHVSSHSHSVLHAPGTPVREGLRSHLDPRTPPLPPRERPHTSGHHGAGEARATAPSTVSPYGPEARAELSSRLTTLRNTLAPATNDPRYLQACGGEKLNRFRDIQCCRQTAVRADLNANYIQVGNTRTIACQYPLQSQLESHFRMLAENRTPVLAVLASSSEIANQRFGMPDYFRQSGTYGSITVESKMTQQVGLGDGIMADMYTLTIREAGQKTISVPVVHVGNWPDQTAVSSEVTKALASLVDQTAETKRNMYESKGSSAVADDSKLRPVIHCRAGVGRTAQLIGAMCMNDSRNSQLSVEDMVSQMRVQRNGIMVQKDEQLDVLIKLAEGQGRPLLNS

## O=[N+]([O-])c1ccc(OP(=O)(O)O)cc1 [p-NPP]
Yersinia PTPase; pH 5.5, read-out: Km of substrate, Yersinia PTPase
  Km: 2500 µM
LAR PTPase
  Km: 2100 µM
PTP1B [1]
  Km: 620 µM
PTP1B [2]
  Km: 750 µM

## O=C(O)C(=O)c1ccccc1 [Compound 1]
Yersinia PTPase
  IC50: 2700 µM

## O=C(O)C(=O)c1ccco1 [Compound 11]
Yersinia PTPase
  Ki: 79 µM

## O=C(O)C(=O)c1c[nH]c2ccccc12 [Compound 8]
Yersinia PTPase
  IC50: 390 µM

## O=C(O)C(=O)c1ccc(O)cc1 [Compound 27]
Yersinia PTPase
  IC50: 200 ± 20 µM

## COc1ccc(C(=O)C(=O)O)cc1 [Compound 10]
Yersinia PTPase
  IC50: 150 µM
